The text below walks through data of the Kinase Knowledgebase extract (Sharma et al. 2016).

The assay addresses CDK2 (UniProt P24941). Briefly: Enzyme Assay.

In turn, `CCCS(=O)(=O)Nc1ccc(Sc2nc(Nc3cc(C)n[nH]3)c3ccccc3n2)cc1` registered a Ki of 1 to 20 µM.

Molecule `Cc1cc(Nc2nc(Nc3ccc(CC#N)cc3)nc3ccccc23)[nH]n1` came in with a Ki of less than 1 µM.

Molecule `OCCc1ccc(Nc2nc(Nc3cc(C4CC4)n[nH]3)c3ccccc3n2)cc1` had a Ki of less than 1 µM.

Turning to `CC(=O)Nc1ccc(Sc2nc(Nc3cc(C4CC4)n[nH]3)c3ccccc3n2)cc1`, the Ki is less than 1 µM.

As to `N#CCc1ccc(Nc2nc(Nc3cc(C4CC4)n[nH]3)cc(-c3ccccc3)n2)cc1`, the Ki is less than 1 µM.

`Cc1cccc(Sc2nc(Nc3cc(C)n[nH]3)c3ccccc3n2)c1` gave a Ki of less than 1 µM.

On to `c1ccc2c(Nc3cc(C4CC4)n[nH]3)nc(Nc3ccc4ncsc4c3)nc2c1`, for which the Ki was less than 1 µM.

Regarding `COc1ccc2c(Nc3cc(C)n[nH]3)nc(Sc3ccc(NC(C)=O)cc3)nc2c1`, the Ki was in the range of 1 to 20 µM.

In turn, `CCc1ccc(Nc2nc(Nc3cc(C4CC4)n[nH]3)c3ccccc3n2)cc1` came in with a Ki of less than 1 µM.

Regarding `CC(=O)Nc1ccc(Sc2nc(Nc3cc(C)n[nH]3)c3ccccc3n2)cc1`, the Ki lay within 1 to 20 µM.

Molecule `CC(=O)Nc1ccc(Sc2nc(Nc3cc(C)n[nH]3)c3cccc(O)c3n2)cc1` yielded a Ki of 1 to 20 µM.

Molecule `COc1cccc2c(Nc3cc(C)n[nH]3)nc(Sc3ccc(NC(C)=O)cc3)nc12` gave a Ki of 1 to 20 µM.

Molecule `Cc1cc(Nc2nc(Nc3ccc4ncsc4c3)nc3ccccc23)[nH]n1` gave a Ki of less than 1 µM.

The term Ki denotes the dissociation constant of the complex between target and ligand, obtained from inhibition or displacement. Low readings indicate higher affinity, high ones lower affinity.
